Patent publication US10195222B2, “Acyclic nucleoside phosphonate diesters” (The Regents of the University of California, priority 2013, dated 2019)
Where two headings read alike, the source gives them in different places.

Assays:
[1] = Cell proliferation assay (neutral red), normal human fibroblasts; type: cell-based; settings: read-out: Cytotoxicity, CC50, Normal cells Human fibroblasts
Protocol: (§1) Method Cell Proliferation Assays: The various human fibroblast and human cervical cancer cell lines were plated at 5×10^3 per well in 96 well plates using media with 10% fetal bovine serum added and incubated for about 24 hr. Ten mM stock solutions of the compounds were prepared in 10% DMSO in distilled water. Serial drug dilutions were made in media containing 2% FBS to give a final […] concentration, added to the wells, and incubated at 37° C. for 5 days. Cytotoxicity was measured by neutral red reduction, as known in the art.

[2] = system: Me180 (68) cervical cancer cells; test: Cell proliferation assay (neutral red), Me180 cervical cancer cells; type: cell-based; settings: Homo sapiens, ME-180, 120 h, read-out: Cytotoxicity, CC50, Cervical Cancer Cells Me180 (68)
Protocol: as §1

[3] = system: HeLa (18) cervical cancer cells; test: Cell proliferation assay (neutral red), HeLa cervical cancer cells; type: cell-based; settings: Homo sapiens, 120 h, read-out: Cytotoxicity, CC50, Cervical Cancer Cells HeLa (18)
Protocol: as §1

HSV-2 = HSV-2 plaque reduction assay in HFF cells; type: cell-based; settings: for Selectivity index: HSV-2 in HFF cells; for EC50: plaque reduction, 3 days, read-out: EC50 (HSV-2 antiviral activity in HFF cells)
Protocol: Antiviral assay. […] Plates were allowed to incubate for 37° C. for 1 hour. […] Plates were incubated at 37° C. for 3 days and monolayers were stained with crystal violet. Plaques were counted and results are expressed as μM concentration of drug which reduced plaques by 50% versus control plates without drug. (Richards et al, Antiviral Res. 2:27, 1982)

[4] = system: Caski (16) cervical cancer cells; test: Cell proliferation assay (neutral red), Caski cervical cancer cells; type: cell-based; settings: Homo sapiens, Ca-Ski, 120 h, read-out: Cytotoxicity, CC50, Cervical Cancer Cells Caski (16)
Protocol: as §1

[5] = Cytotoxicity (reduction of cell proliferation) in HEK 293 cells; type: cell-based; settings: human, read-out: CC50 (50% reduction of cell proliferation)
From the text: (§2) Assay. DNA PCR in HEK 293 cells infected with HPV-11, EC50, effective concentration 50%; CC50, 50% reduction of cell proliferation. DNA PCR by the methods reported by Chiang et al, Proc Natl Acad Sci USA. 1992. 89(13):5799-803 and Taylor and Morgan, Virology. 2003. 10; 315(1):103-9.

HPV-11 = HPV-11 antiviral assay, DNA PCR in HEK 293 cells; type: cell-based; settings: for Selectivity index: HPV-11 in HEK 293 cells
From the text: as §2

[6] = Cytotoxicity in HFF cells (HSV-2 table); settings: human, HFF cells
HIV-1LAI = test: HIV antiviral assay, p24 reduction in MT-2 cells; settings: for Selectivity index: CC50/EC50, HIV-1 in MT-2 cells
HFF cells = test: Cytotoxicity in HFF cells (HSV-2 table); settings: read-out: CC50 (HFF cells); Table 10
[7] = system: MT-2 cells (human T cell leukemia); test: Cytotoxicity in MT-2 cells (flow cytometry, propidium iodide); type: cell-based; settings: 72 hrs
Protocol: (§3) Method of cytotoxicity determination. MT-2 cells were incubated with drug for 72 hrs and harvested. Flow count beads (Beckman Coulter, Miami, Fla.) were added to the cell suspension followed by propidium iodide staining and analysis using flow cytometer and the 50% cytotoxic concentration (CC50) was calculated from the cell counts and viability.
as §3, with “Method” for “Method of”

[8] = Human alphaherpesvirus 2, HFF, 72 h

| SMILES | Selectivity index (HSV-2) | EC50 (HSV-2; [8]) | CC50 [5] | Selectivity index (HPV-11) | CC50 [6] | Selectivity index (HIV-1LAI) | other results |
| --- | --- | --- | --- | --- | --- | --- | --- |
| CCCCCCCCCCCCCCCCCCOCCOP(=O)(COCCn1cnc2c(=O)[nH]c(N)nc21)OCc1ccccc1 (racemic) [Bn-ODE-PMEG, benzyl octadecyloxyethyl 9-[2-(phosphonomethoxy)ethyl]guanine] | >10 | < 1000 nM | > 100000 nM | >151 | – | – | CC50 at 5 days [1]: 15000 ± 1500 nM; CC50 [2]: 31 ± 20 nM; CC50 [3]: 310 ± 110 nM; CC50 [4]: 15 ± 7 nM; EC50 (HPV-11; HEK293, DNA PCR in HEK 293 cells infected with HPV-11): 660 nM |
| CCCCCCCCCCCCCCCCCCOCCOP(=O)(CO[C@H](CO)Cn1cnc2c(N)ncnc21)OCc1ccccc1 (stereo partly drawn) [Bn-ODE-(S)-HPMPA, benzyl octadecyloxyethyl 9-(S)-[3-hydroxy-2-(phosphonomethoxy)propyl]adenine] | >52 | < 100 nM | – | >370 | 5200 nM | 17.7 | CC50 at 5 days ([1]; normal human fibroblasts (HFF)): 5200 ± 3900 nM; CC50 ([2]; 5 days, neutral red): 210 ± 70 nM |
| CCCCCCCCCCCCCCCCCCOCCOP(=O)(CO[C@H](CO)Cn1ccc(N)nc1=O)OCc1ccccc1 (stereo partly drawn) [Bn-ODE-(S)-HPMPC, benzyl octadecyloxyethyl 1-(S)-[(3-hydroxy-2-phosphonomethoxy)propyl]cytosine] | >48 | < 100 nM | – | – | 4800 nM | 6.7 | – |
| CCCCCCCCCCCCCCCCCCOCCOP(=O)(COCCn1cnc2c(N)ncnc21)OCc1ccccc1 (centres unmarked) [Bn-ODE-PMEA, benzyl octadecyloxyethyl 9-[2-(phosphonomethoxy)ethyl]adenine] | – | – | > 100000 nM | – | – | – | – |
| CCCCCCCCCCCCCCCCCCOCCOP(=O)(COCCn1cnc2c(=O)[nH]c(N)nc21)OCc1ccccc1 (centres unmarked) [Bn-ODE-PMEG fast, benzyl octadecyloxyethyl 9-(2-phosphonomethoxyethyl)guanine] | – | – | – | – | – | – | EC50 (HSV-2): < 100 nM; CC50 (HFF cells): > 4000 nM |
| CCCCCCCCCCCCCCCCCCOCCOP(=O)(COCCn1cnc2c(=O)[nH]c(N)nc21)OCc1ccccc1 (centres unmarked) [Bn-ODE-PMEG slow, benzyl octadecyloxyethyl 9-(2-phosphonomethoxyethyl)guanine] | – | – | – | – | – | – | EC50 (HIV-1LAI; read-out: EC50 (HIV antiviral activity in MT-2 cells), p24 reduction, four days after infection): < 0.01 nM; CC50 ([7]; Table 7, read-out: CC50, 50% Cytotoxic concentration, MT2 cells T cell leukemia): < 10 nM; CC50 ([7]; Table 8, read-out: CC50 (MT-2 cells)): < 10 nM |
